A short description of data set [1]: logP determination by HPLC on a reversed-phase column (EEC Directive 79/831 Annex V.A8). The settings on record: reversed-phase C18 HPLC column.
Experimental: Temperature: 40° C.; Mobile phases: 0.1% aqueous formic acid and acetonitrile; linear gradient from 10% acetonitrile to 90% acetonitrile.
Calibration was carried out using unbranched alkan-2-ones (comprising 3 to 16 carbon atoms) with known logP values (determination of the logP values by the retention times using linear interpolation between two successive alkanones). lambda-max-values were determined using UV-spectra from 200 nm to 400 nm and the peak values of the chromatographic signals.
In a further data set the test system is BRSNS (Brassica napus). Briefly: Drought stress test on crop plants, spray application, BRSNS. To be noted: mean of 2 or more experiments. Type of data set: in vivo. As to the method:
(§1) Seeds of monocotyledonous and dicotyledonous crop plants were placed in sandy loam in wood-fiber pots, covered with soil and cultivated in a greenhouse under good growth conditions. The test plants were treated at the early leaf stage (BBCH10-BBCH13). To ensure uniform water supply before commencement of stress, the potted plants were supplied with the maximum amount of water immediately beforehand by dam irrigation.
(§2) The inventive compounds, formulated in the form of wettable powders (WP) were sprayed onto the green parts of the plants as an aqueous suspension at an equivalent water application rate of 600 l/ha with addition of 0.2% wetting agent (agrotin). Substance application was followed immediately by stress treatment of the plants, for which the pots were transferred in plastic inserts in order to prevent subsequent, excessively rapid drying.
(§3) Drought stress was induced by gradual drying out under the following conditions: • “day”: 14 hours with illumination at ˜26° C. • “night”: 10 hours without illumination at ˜18° C.
(§4) The duration of the respective stress phases was guided mainly by the state of the untreated, stressed control plants and thus varies from crop to crop. It was ended (by re-irrigating or transfer to a greenhouse with good growth conditions) as soon as irreversible damage is observed on the untreated, stressed control plants. In the case of dicotyledonous crops, for example oilseed rape and soya, the duration of the drought stress phase was between 3 and 6 days, in the case of monocotyledonous crops, for example wheat, barley or corn, between 6 and 11 days.
(§5) The end of the stress phase was followed by an approx. 5-7-day recovery phase, during which the plants were once again kept under good growth conditions in a greenhouse. In order to rule out any influence of the effects observed by any fungicidal action of the test compounds, it was additionally ensured that the tests proceed without fungal infection and without infection pressure.
(§6) After the recovery phase had ended, the intensities of damage were rated visually compared to untreated, unstressed controls of the same age (in the case of drought stress) or the same growth stage (in the case of cold stress). The intensity of damage was first assessed as a percentage (100% =plants have died, 0% =like control plants). These values were then used to calculate the efficacy of the test compounds (=percentage reduction in the intensity of damage as a result of substance application) by the following formula:
(§7) [formula] • EF: efficacy (%) • DVus: damage value of the untreated, stressed control • […] with test compound
(§8) The tables below list mean values in each case from 2 or more independent experiments.
(§9) Tables A.1 to A.3 show, by way of example, the efficacies of compound of formula (I) as herein defined under drought stress and in conjunction with application to different crop plants, i.e. in table A.1 on application to BRSNS (Brassica napus), in table A.2 on application to TRZAS (Triticum aestivum) and in table A.3 on application to ZEAMX (Zea mays): […]

The subject of a further data set is ZEAMX (Zea mays). Briefly: Drought stress test on crop plants, spray application, ZEAMX. The settings on record: dosage 250 g/ha, mean of 2 or more experiments. In kind it is in vivo. As to the method: as §1, §2
Drought stress was induced by gradual drying out under the following conditions: • “day”: 14 hours with illumination at ˜26° C. • “night”: 10 hours without illumination at ˜18° C. […]
After the recovery phase had ended, the intensities of damage were rated visually compared to untreated, unstressed controls of the same age (in the case of drought stress) or the same growth stage (in the case of cold stress). The intensity of damage was first assessed as a percentage (100% =plants have died, 0% =like control plants). […]

Data set [2] deals with TRZAS (Triticum aestivum). Briefly: Drought stress test on crop plants, spray application, TRZAS. Type of data set: in vivo. To be noted: for pest or weed control at 25 g/ha: dosage 25 g/ha; for pest or weed control at 25 g/ha / pest or weed control at 250 g/ha / percent reduction in drought damage at 25 g/ha / percent reduction in drought damage at 250 g/ha: read-out: EF (TRZAS), efficacy = percentage reduction in the intensity of damage. As to the method:
as §1, §2, §3, §4, §5, §6, §7, §8, §9

The mark [3] stands for this setting: drought stress, spray, mean of 2 or more experiments.
Setting [4] is: drought stress, dosage 250 g/ha, spray, mean of 2 or more experiments.

In data set [1], `Cn1nc(C(F)F)c(C(=O)N(Cc2cc(F)ccc2C2CCCC2)C2CC2)c1F` [Compound A9, N-(2-cyclopentyl-5-fluorobenzyl)-N-cyclopropyl-3-(difluoromethyl)-5-fluoro-1-methyl-1H-pyrazole-4-carboxamide] showed a chromatographic logP of 4.21.

Consider `CC(C)c1ccc(F)cc1CN(C(=O)c1c(C(F)F)nn(C)c1F)C1CC1` [Compound A7, N-cyclopropyl-3-(difluoromethyl)-5-fluoro-N-(5-fluoro-2-isopropylbenzyl)-1-methyl-1H-pyrazole-4-carboxamide], for which, in the data set on BRSNS (Brassica napus) (dosage 250 g/ha), the “EF (BRSNS), efficacy = percentage reduction in the intensity of damage” value is given as over 5%. Besides, the chromatographic logP in data set [1] is 3.7.

As to `Cn1nc(C(F)F)c(C(=O)N(Cc2cc(F)ccc2C2CC2)C2CC2)c1F` [Compound A8, N-cyclopropyl-N-(2-cyclopropyl-5-fluorobenzyl)-3-(difluoromethyl)-5-fluoro-1-methyl-1H-pyrazole-4-carboxamide], in the data set on BRSNS (Brassica napus) (dosage 2.5 g/ha), the “EF (BRSNS), efficacy = percentage reduction in the intensity of damage” value is reported as over 5%. In addition, the “EF (ZEAMX), efficacy = percentage reduction in the intensity of damage” value in the data set with ZEAMX (Zea mays) is over 5%. For the same compound, the chromatographic logP in data set [1] was 3.46.

As for `Cn1nc(C(F)F)c(C(=O)N(Cc2ccccc2C2CC2)C2CC2)c1F` [Compound A2, N-cyclopropyl-N-(2-cyclopropylbenzyl)-3-(difluoromethyl)-5-fluoro-1-methyl-1H-pyrazole-4-carboxamide], the “EF (BRSNS), efficacy = percentage reduction in the intensity of damage” value in the data set on BRSNS (Brassica napus) (dosage 2.5 g/ha), with BRSNS (Brassica napus) (dosage 25 g/ha) and with BRSNS (Brassica napus) (dosage 250 g/ha) was over 5% in each case. In data set [1], this compound had a chromatographic logP of 3.44.

Take `CC(C)c1cccc(F)c1CN(C(=O)c1c(C(F)F)nn(C)c1F)C1CC1` [Compound A10, N-cyclopropyl-3-(difluoromethyl)-5-fluoro-N-(2-fluoro-6-isopropylbenzyl)-1-methyl-1H-pyrazole-4-carboxamide]: the chromatographic logP in data set [1] is 3.65.

Turning to `Cn1nc(C(F)F)c(C(=O)N(Cc2c(C(F)(F)F)ccc(Cl)c2F)C2CC2)c1F` [Compound A18, N-[3-chloro-2-fluoro-6-(trifluoromethyl)benzyl]-N-cyclopropyl-3-(difluoromethyl)-5-fluoro-1-methyl-1H-pyrazole-4-carboxamide], in data set [1], the chromatographic logP was 3.62.

`CCc1ccc(F)cc1CN(C(=O)c1c(C(F)F)nn(C)c1F)C1CC1` [Compound A6, N-cyclopropyl-3-(difluoromethyl)-N-(2-ethyl-5-fluorobenzyl)-5-fluoro-1-methyl-1H-pyrazole-4-carboxamide]: the “EF (BRSNS), efficacy = percentage reduction in the intensity of damage” value with BRSNS (Brassica napus) (dosage 25 g/ha) is over 5%. For the same compound, the pest or weed control at 25 g/ha in data set [2] (setting [3]) is over 5%. Also, the pest or weed control at 250 g/ha in data set [2] (setting [4]) is over 5%. Further, the chromatographic logP in data set [1] is 3.41.

For `CCc1cc(C)c(C)cc1CN(C(=O)c1c(C(F)F)nn(C)c1F)C1CC1` [Compound A19, N-cyclopropyl-3-(difluoromethyl)-N-(2-ethyl-4,5-dimethylbenzyl)-5-fluoro-1-methyl-1H-pyrazole-4-carboxamide], the “EF (BRSNS), efficacy = percentage reduction in the intensity of damage” value in the data set on BRSNS (Brassica napus) (dosage 25 g/ha) was over 5%. In data set [2] (setting [3]), the pest or weed control at 25 g/ha is over 5%. Moreover, in data set [1], the chromatographic logP came to 4.04.

With `Cn1nc(C(F)F)c(C(=O)N(Cc2cc(Cl)ccc2C(F)(F)F)C2CC2)c1F` [Compound A15, N-[5-chloro-2-(trifluoromethyl)benzyl]-N-cyclopropyl-3-(difluoromethyl)-5-fluoro-1-methyl-1H-pyrazole-4-carboxamide], the chromatographic logP in data set [1] is 3.8.

For the compound “N-cyclopropyl-3-(difluoromethyl)-5-fluoro-N-(2-isopropylbenzyl)-1-methyl-1H-pyrazole-4-carbothio-amide [Compound A20]”, the “EF (TRZAS), efficacy = percentage reduction in the intensity of damage” value in data set [2] (setting [4]) is over 5%.

For `CCc1ccc(Cl)cc1CN(C(=O)c1c(C(F)F)nn(C)c1F)C1CC1` [Compound A4, N-(5-chloro-2-ethylbenzyl)-N-cyclopropyl-3-(difluoromethyl)-5-fluoro-1-methyl-1H-pyrazole-4-carboxamide], in data set [2], the percent reduction in drought damage at 25 g/ha was over 5%. For the same compound, the chromatographic logP in data set [1] amounted to 3.76.

Regarding `Cc1ccc(C(C)C)c(CN(C(=O)c2c(C(F)F)nn(C)c2F)C2CC2)c1` [Compound A12, N-cyclopropyl-3-(difluoromethyl)-5-fluoro-N-(2-isopropyl-5-methylbenzyl)-1-methyl-1H-pyrazole-4-carboxamide], the “EF (BRSNS), efficacy = percentage reduction in the intensity of damage” value in the data set with BRSNS (Brassica napus) (dosage 2.5 g/ha), in the data set on BRSNS (Brassica napus) (dosage 25 g/ha) and in the data set with BRSNS (Brassica napus) (dosage 250 g/ha) was over 5% throughout. The chromatographic logP in data set [1] stood at 3.99.

Compound `CC(C)c1ccccc1CN(C(=O)c1c(C(F)F)nn(C)c1F)C1CC1` [Compound A1, N-cyclopropyl-3-(difluoromethyl)-5-fluoro-N-(2-isopropylbenzyl)-1-methyl-1H-pyrazole-4-carboxamide] had a chromatographic logP in data set [1] of 3.35.

As for `Cc1ccc(C(F)(F)F)c(CN(C(=O)c2c(C(F)F)nn(C)c2F)C2CC2)c1` [Compound A16, N-cyclopropyl-3-(difluoromethyl)-5-fluoro-1-methyl-N-[5-methyl-2-(trifluoromethyl)benzyl]-1H-pyrazole-4-carboxamide], the percent reduction in drought damage at 250 g/ha in data set [2] was over 5%. In addition, the chromatographic logP in data set [1] turned out to be 3.78.

With `CCc1ccc(C)cc1CN(C(=O)c1c(C(F)F)nn(C)c1F)C1CC1` [Compound A11, N-cyclopropyl-3-(difluoromethyl)-N-(2-ethyl-5-methylbenzyl)-5-fluoro-1-methyl-1H-pyrazole-4-carboxamide], the pest or weed control at 25 g/ha in data set [2] (setting [3]) is over 5%. In addition, the chromatographic logP in data set [1] is 3.7.

For `CC(C)c1ccc(Cl)cc1CN(C(=O)c1c(C(F)F)nn(C)c1F)C1CC1` [Compound A5, N-(5-chloro-2-isopropylbenzyl)-N-cyclopropyl-3-(difluoromethyl)-5-fluoro-1-methyl-1H-pyrazole-4-carboxamide], the “EF (BRSNS), efficacy = percentage reduction in the intensity of damage” value in the data set with BRSNS (Brassica napus) (dosage 25 g/ha) is recorded as over 5%. Further, the pest or weed control at 25 g/ha in data set [2] (setting [3]) was over 5%. Moreover, in data set [2] (setting [4]), the pest or weed control at 250 g/ha is over 5%. This compound also came in with a chromatographic logP in data set [1] of 4.09.

In data set [1], `Cc1ccc(C2CC2)c(CN(C(=O)c2c(C(F)F)nn(C)c2F)C2CC2)c1` [Compound A13, N-cyclopropyl-N-(2-cyclopropyl-5-methylbenzyl)-3-(difluoromethyl)-5-fluoro-1-methyl-1H-pyrazole-4-carboxamide] displayed a chromatographic logP of 3.76.

In the case of `Cn1nc(C(F)F)c(C(=O)N(Cc2ccccc2C(C)(C)C)C2CC2)c1F` [Compound A3, N-(2-tert-butylbenzyl)-N-cyclopropyl-3-(difluoromethyl)-5-fluoro-1-methyl-1H-pyrazole-4-carboxamide], in data set [2], the percent reduction in drought damage at 25 g/ha is over 5% and the percent reduction in drought damage at 250 g/ha was over 5%. In data set [1], this compound returned a chromatographic logP of 4.06.

On to `Cc1ccc(C(C)(C)C)c(CN(C(=O)c2c(C(F)F)nn(C)c2F)C2CC2)c1` [Compound A14, N-(2-tert-butyl-5-methylbenzyl)-N-cyclopropyl-3-(difluoromethyl)-5-fluoro-1-methyl-1H-pyrazole-4-carboxamide], for which the percent reduction in drought damage at 250 g/ha in data set [2] was over 5%. The compound further had a chromatographic logP in data set [1] of 4.36.

`Cn1nc(C(F)F)c(C(=O)N(Cc2c(Cl)cccc2C(F)(F)F)C2CC2)c1F` [Compound A17, N-[2-chloro-6-(trifluoromethyl)benzyl]-N-cyclopropyl-3-(difluoromethyl)-5-fluoro-1-methyl-1H-pyrazole-4-carboxamide]: the chromatographic logP in data set [1] worked out at 3.46.

Broadly, the chromatographic logP is a lipophilicity value derived from retention on a column. A high value points to higher lipophilicity.

The values are drawn from patent publication US20150250176A1, “METHOD FOR ENHANCING TOLERANCE TO ABIOTIC STRESS IN PLANTS USING CARBOXAMIDE OR THIOCARBOXAMIDE DERIVATIVES” (BAYER CROPSCIENCE AG, priority 2012, published 2015).
